Values joined by “and” are separate entries in the source; they are usually repeats but may differ in a detail not shown here. Equal entries are not always repeated. Inconclusive results and toxic doses are left out.
System: CD2F1 mice, L1210 leukemia ip, survival T/C
Assay: NCI In Vivo Anticancer Drug Screen. Data for tumor model L1210 Leukemia (intraperitoneal) in CD2F1 (CDF1) mice
Settings: higher = longer survival
Summary of the method: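 In this screen, transplantable tumors were grown in mice given either the compound or its vehicle. Results were expressed as the treated measurement relative to the control measurement.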

O=C1c2ccccc2C(=O)c2c(NCCNCCO)ccc(NCCNCCO)c21
T/C (endpoint: mean survival time, dose: 1.0 mg/kg/injection, schedule: Q01DX005 (iv), vehicle: clinical formulation): 104 % of control | T/C (endpoint: mean survival time, dose: 2.0 mg/kg/injection, schedule: Q01DX005 (iv), vehicle: saline): 98 % of control | T/C (endpoint: mean survival time, dose: 2.0 mg/kg/injection, schedule: Q01DX009 (ip), vehicle: saline): 153 % of control | T/C (endpoint: mean survival time, dose: 2.5 mg/kg/injection, schedule: Q01DX009 (ip), vehicle: saline): 190 % of control | T/C (endpoint: mean survival time, dose: 2.62 mg/kg/injection, schedule: Q01DX009 (ip), vehicle: saline): 156 % of control | T/C (endpoint: mean survival time, dose: 4.0 mg/kg/injection, schedule: Q01DX005 (iv), vehicle: clinical formulation): 123 % of control | T/C (endpoint: mean survival time, dose: 4.0 mg/kg/injection, schedule: Q01DX005 (oral), vehicle: acid diluted with saline): 102 % of control | T/C (endpoint: mean survival time, dose: 4.0 mg/kg/injection, schedule: Q01DX009 (ip), vehicle: clinical formulation): 157 % of control | T/C (endpoint: mean survival time, dose: 4.0 mg/kg/injection, schedule: Q01DX009 (ip), vehicle: saline): 271 % of control | T/C (endpoint: mean survival time, dose: 4.0 mg/kg/injection, schedule: Q04DX003 (ip), vehicle: water): 284 % of control | T/C (endpoint: mean survival time, dose: 5.0 mg/kg/injection, schedule: Q01DX009 (ip), vehicle: saline): 156 % of control and 186 % of control | T/C (endpoint: mean survival time, dose: 5.25 mg/kg/injection, schedule: Q01DX009 (ip), vehicle: saline): 159 % of control | T/C (endpoint: mean survival time, dose: 8.0 mg/kg/injection, schedule: Q01DX005 (iv), vehicle: clinical formulation): 120 % of control | T/C (endpoint: mean survival time, dose: 8.0 mg/kg/injection, schedule: Q01DX005 (iv), vehicle: saline): 119 % of control | T/C (endpoint: mean survival time, dose: 8.0 mg/kg/injection, schedule: Q01DX005 (oral), vehicle: acid diluted with saline): 98 % of control | T/C (endpoint: mean survival time, dose: 8.0 mg/kg/injection, schedule: Q01DX005 (oral), vehicle: saline): 101 % of control | T/C (endpoint: mean survival time, dose: 8.0 mg/kg/injection, schedule: Q01DX009 (ip), vehicle: clinical formulation): 346 % of control | T/C (endpoint: mean survival time, dose: 8.0 mg/kg/injection, schedule: Q01DX009 (ip), vehicle: saline): 281 % of control | T/C (endpoint: mean survival time, dose: 8.0 mg/kg/injection, schedule: Q01DX009 (ip), vehicle: water): 163 % of control and 166 % of control | T/C (endpoint: mean survival time, dose: 8.0 mg/kg/injection, schedule: Q04DX003 (ip), vehicle: water): 261 % of control | T/C (endpoint: mean survival time, dose: 10.0 mg/kg/injection, schedule: Q01DX009 (ip), vehicle: saline): 218 % of control and 219 % of control | T/C (endpoint: mean survival time, dose: 10.5 mg/kg/injection, schedule: Q01DX009 (ip), vehicle: saline): 228 % of control | T/C (endpoint: mean survival time, dose: 11.7 mg/kg/injection, schedule: Q01DX001 (iv), vehicle: saline): 98 % of control | T/C (endpoint: mean survival time, dose: 16.0 mg/kg/injection, schedule: Q01DX005 (ip), vehicle: saline): 170 % of control | T/C (endpoint: mean survival time, dose: 16.0 mg/kg/injection, schedule: Q01DX005 (iv), vehicle: clinical formulation): 164 % of control | T/C (endpoint: mean survival time, dose: 16.0 mg/kg/injection, schedule: Q01DX005 (oral), vehicle: saline): 101 % of control | T/C (endpoint: mean survival time, dose: 16.0 mg/kg/injection, schedule: Q01DX009 (ip), vehicle: clinical formulation): 461 % of control | T/C (endpoint: mean survival time, dose: 16.0 mg/kg/injection, schedule: Q01DX009 (ip), vehicle: saline): 529 % of control | T/C (endpoint: mean survival time, dose: 16.0 mg/kg/injection, schedule: Q01DX009 (ip), vehicle: water): 153 % of control and 183 % of control | T/C (endpoint: mean survival time, dose: 19.4 mg/kg/injection, schedule: Q01DX001 (iv), vehicle: saline): 102 % of control | T/C (endpoint: mean survival time, dose: 20.0 mg/kg/injection, schedule: Q01DX009 (ip), vehicle: saline): 158 % of control and 219 % of control | T/C (endpoint: mean survival time, dose: 32.0 mg/kg/injection, schedule: Q01DX005 (ip), vehicle: saline): 263 % of control | T/C (endpoint: mean survival time, dose: 32.0 mg/kg/injection, schedule: Q01DX005 (iv), vehicle: saline): 150 % of control | T/C (endpoint: mean survival time, dose: 32.0 mg/kg/injection, schedule: Q01DX005 (oral), vehicle: acid diluted with saline): 98 % of control | T/C (endpoint: mean survival time, dose: 32.0 mg/kg/injection, schedule: Q01DX005 (oral), vehicle: saline): 103 % of control | T/C (endpoint: mean survival time, dose: 32.0 mg/kg/injection, schedule: Q01DX009 (ip), vehicle: clinical formulation): 96 % of control | T/C (endpoint: mean survival time, dose: 32.0 mg/kg/injection, schedule: Q01DX009 (ip), vehicle: water): 92 % of control | T/C (endpoint: mean survival time, dose: 32.0 mg/kg/injection, schedule: Q04DX003 (ip), vehicle: saline): 160 % of control | T/C (endpoint: mean survival time, dose: 32.4 mg/kg/injection, schedule: Q01DX001 (ip), vehicle: saline): 158 % of control and 160 % of control | T/C (endpoint: mean survival time, dose: 32.4 mg/kg/injection, schedule: Q01DX001 (iv), vehicle: saline): 117 % of control | T/C (endpoint: mean survival time, dose: 40.0 mg/kg/injection, schedule: Q01DX009 (ip), vehicle: saline): 91 % of control and 96 % of control | T/C (endpoint: mean survival time, dose: 42.0 mg/kg/injection, schedule: Q01DX009 (ip), vehicle: saline): 90 % of control | T/C (endpoint: mean survival time, dose: 54.0 mg/kg/injection, schedule: Q01DX001 (ip), vehicle: saline): 150 % of control and 160 % of control | T/C (endpoint: mean survival time, dose: 64.0 mg/kg/injection, schedule: Q01DX005 (ip), vehicle: saline): 89 % of control | T/C (endpoint: mean survival time, dose: 64.0 mg/kg/injection, schedule: Q01DX005 (oral), vehicle: acid diluted with saline): 92 % of control | T/C (endpoint: mean survival time, dose: 64.0 mg/kg/injection, schedule: Q01DX009 (ip), vehicle: water): 90 % of control | T/C (endpoint: mean survival time, dose: 64.0 mg/kg/injection, schedule: Q04DX003 (ip), vehicle: saline): 289 % of control | T/C (endpoint: mean survival time, dose: 90.0 mg/kg/injection, schedule: Q01DX001 (ip), vehicle: saline): 182 % of control | T/C (endpoint: mean survival time, dose: 128.0 mg/kg/injection, schedule: Q01DX005 (oral), vehicle: acid diluted with saline): 100 % of control | T/C (endpoint: mean survival time, dose: 128.0 mg/kg/injection, schedule: Q04DX003 (ip), vehicle: saline): 247 % of control | T/C (endpoint: mean survival time, dose: 150.0 mg/kg/injection, schedule: Q01DX001 (ip), vehicle: saline): 221 % of control and 98 % of control | T/C (endpoint: median survival time, dose: 0.25 mg/kg/injection, schedule: Q01DX005 (iv), vehicle: clinical formulation): 97 % of control | T/C (endpoint: median survival time, dose: 0.25 mg/kg/injection, schedule: Q01DX005 (iv), vehicle: water): 102 % of control | T/C (endpoint: median survival time, dose: 0.25 mg/kg/injection, schedule: Q01DX009 (ip), vehicle: water): 118 % of control | T/C (endpoint: median survival time, dose: 0.5 mg/kg/injection, schedule: Q01DX005 (iv), vehicle: clinical formulation): 97 % of control | T/C (endpoint: median survival time, dose: 0.5 mg/kg/injection, schedule: Q01DX005 (iv), vehicle: water): 98 % of control | T/C (endpoint: median survival time, dose: 0.5 mg/kg/injection, schedule: Q01DX009 (ip), vehicle: clinical formulation): 121 % of control | T/C (endpoint: median survival time, dose: 1.0 mg/kg/injection, schedule: Q01DX005 (iv), vehicle: clinical formulation): 102 % of control | T/C (endpoint: median survival time, dose: 1.0 mg/kg/injection, schedule: Q01DX005 (iv), vehicle: water): 97 % of control | T/C (endpoint: median survival time, dose: 2.0 mg/kg/injection, schedule: Q01DX005 (iv), vehicle: clinical formulation): 97 % of control | T/C (endpoint: median survival time, dose: 2.0 mg/kg/injection, schedule: Q01DX005 (iv), vehicle: water): 102 % of control | T/C (endpoint: median survival time, dose: 2.0 mg/kg/injection, schedule: Q01DX009 (ip), vehicle: Klucel (hydroxypropylcellulose) (HPC)): 151 % of control | T/C (endpoint: median survival time, dose: 4.0 mg/kg/injection, schedule: Q01DX005 (iv), vehicle: clinical formulation): 115 % of control | T/C (endpoint: median survival time, dose: 4.0 mg/kg/injection, schedule: Q01DX009 (ip), vehicle: Klucel (hydroxypropylcellulose) (HPC)): 197 % of control | T/C (endpoint: median survival time, dose: 4.0 mg/kg/injection, schedule: Q01DX009 (ip), vehicle: clinical formulation): 160 % of control | T/C (endpoint: median survival time, dose: 4.0 mg/kg/injection, schedule: Q01DX009 (ip), vehicle: water): 156 % of control | T/C (endpoint: median survival time, dose: 4.0 mg/kg/injection, schedule: Q01DX009 (sc), vehicle: Klucel (hydroxypropylcellulose) (HPC)): 120 % of control | T/C (endpoint: median survival time, dose: 4.0 mg/kg/injection, schedule: Q01DX009 (sc), vehicle: water): 112 % of control | T/C (endpoint: median survival time, dose: 8.0 mg/kg/injection, schedule: Q01DX009 (ip), vehicle: Klucel (hydroxypropylcellulose) (HPC)): 156 % of control and 182 % of control | T/C (endpoint: median survival time, dose: 8.0 mg/kg/injection, schedule: Q01DX009 (ip), vehicle: clinical formulation): 196 % of control | T/C (endpoint: median survival time, dose: 8.0 mg/kg/injection, schedule: Q01DX009 (ip), vehicle: water): 177 % of control | T/C (endpoint: median survival time, dose: 16.0 mg/kg/injection, schedule: Q01DX005 (iv), vehicle: water): 155 % of control | T/C (endpoint: median survival time, dose: 16.0 mg/kg/injection, schedule: Q01DX005 (oral), vehicle: Klucel (hydroxypropylcellulose) (HPC)): 104 % of control | T/C (endpoint: median survival time, dose: 16.0 mg/kg/injection, schedule: Q01DX009 (ip), vehicle: Klucel (hydroxypropylcellulose) (HPC)): 170 % of control and 188 % of control | T/C (endpoint: median survival time, dose: 16.0 mg/kg/injection, schedule: Q01DX009 (ip), vehicle: clinical formulation): 238 % of control | T/C (endpoint: median survival time, dose: 16.0 mg/kg/injection, schedule: Q01DX009 (ip), vehicle: water): 262 % of control | T/C (endpoint: median survival time, dose: 16.0 mg/kg/injection, schedule: Q01DX009 (sc), vehicle: Klucel (hydroxypropylcellulose) (HPC)): 174 % of control | T/C (endpoint: median survival time, dose: 16.0 mg/kg/injection, schedule: Q01DX009 (sc), vehicle: water): 164 % of control | T/C (endpoint: median survival time, dose: 32.0 mg/kg/injection, schedule: Q01DX005 (iv), vehicle: clinical formulation): 180 % of control | T/C (endpoint: median survival time, dose: 32.0 mg/kg/injection, schedule: Q01DX005 (iv), vehicle: water): 174 % of control | T/C (endpoint: median survival time, dose: 32.0 mg/kg/injection, schedule: Q01DX005 (oral), vehicle: Klucel (hydroxypropylcellulose) (HPC)): 104 % of control | T/C (endpoint: median survival time, dose: 32.0 mg/kg/injection, schedule: Q01DX009 (ip), vehicle: Klucel (hydroxypropylcellulose) (HPC)): 197 % of control and 365 % of control | T/C (endpoint: median survival time, dose: 32.0 mg/kg/injection, schedule: Q01DX009 (ip), vehicle: clinical formulation): 115 % of control | T/C (endpoint: median survival time, dose: 32.0 mg/kg/injection, schedule: Q01DX009 (ip), vehicle: water): 101 % of control | T/C (endpoint: median survival time, dose: 32.0 mg/kg/injection, schedule: Q01DX009 (sc), vehicle: water): 172 % of control | T/C (endpoint: median survival time, dose: 64.0 mg/kg/injection, schedule: Q01DX009 (sc), vehicle: Klucel (hydroxypropylcellulose) (HPC)): 96 % of control | T/C (endpoint: median survival time, dose: 64.0 mg/kg/injection, schedule: Q01DX009 (sc), vehicle: water): 101 % of control | T/C (endpoint: median survival time, dose: 1024.0 mg/kg/injection, schedule: Q01DX005 (oral), vehicle: Klucel (hydroxypropylcellulose) (HPC)): 91 % of control

— PubChem BioAssay AID256 (DTP/NCI, 2004)
